Read-outs that look alike come from different tables or passages of the source.
Assays:
[1] = in air, 25° C., 60% relative humidity
Method: The content of 5-methyltetrahydrofolic acid salt which is quoted in the examples was s determined by HPLC in each case and is given as % area. The water content was determined by a Karl Fischer method.
In order to determine the stabilities of the crystalline salts of 5-methyltetrahydrofolic acid, the substances were stored, together with comparison specimens, in air at 25° C. and at 60% relative humidity. The content of 5-methyltetrahydrofolic acid salt remaining was measured at periodic intervals and is given by comparison with the initial value.

Compound	content of 5-methyltetrahydrofolic acid salt remaining, compared with the initial value ([1]; storage 0 months) [%]	content of 5-methyltetrahydrofolic acid salt remaining, compared with the initial value ([1]; storage 12 months) [%]	content of 5-methyltetrahydrofolic acid salt remaining, compared with the initial value ([1]; storage 3 months) [%]	content of 5-methyltetrahydrofolic acid salt remaining, compared with the initial value ([1]; storage 6 months) [%]	content of 5-methyltetrahydrofolic acid salt remaining, compared with the initial value ([1]; storage 18 months) [%]	content of 5-methyltetrahydrofolic acid salt remaining, compared with the initial value ([1]; storage 88 months) [%]	Solubility at 20° C. in 0.9% NaCl [%]	Solubility at 20° C. in water [%]
CN1c2c([nH]c(N)nc2=O)NC[C@@H]1CNc1ccc(C(=O)N[C@@H](CCC(=O)[O-])C(=O)[O-])cc1.[Ca+2] [Amorphous calcium salt of 5-methyl-(6S)-tetrahydrofolic acid] [reference compound]	100	84.2						
CN1c2c([nH]c(N)nc2=O)NC[C@@H]1CNc1ccc(C(=O)N[C@@H](CCC(=O)[O-])C(=O)[O-])cc1.[Ca+2] [Crystalline calcium salt of 5-methyl-(6S)-tetrahydrofolic ac] [calcium salt of 5-methyl-(6S)-tetrahydrofolic acid]	100	99.1	98.6	98.7	99.0	97.8		
CN1c2c([nH]c(N)nc2=O)NC[C@@H]1CNc1ccc(C(=O)N[C@@H](CCC(=O)[O-])C(=O)[O-])cc1.[Ca+2] [Type I, calcium salt of 5-methyl-(6S)-tetrahydrofolic acid]							1.6	1.1
CN1c2c([nH]c(N)nc2=O)NC[C@@H]1CNc1ccc(C(=O)N[C@@H](CCC(=O)[O-])C(=O)[O-])cc1.[Ca+2] [Type II, calcium salt of 5-methyl-(6S)-tetrahydrofolic acid]							5.8	3.8
CN1c2c([nH]c(N)nc2=O)NC[C@@H]1CNc1ccc(C(=O)N[C@@H](CCC(=O)[O-])C(=O)[O-])cc1.[Ca+2] [Type III, calcium salt of 5-methyl-(6S)-tetrahydrofolic acid]							1.5	1.0

— patent US6441168B1, “Stable crystalline salts of 5-methyltetrahydrofolic acid” (Eprova AG, priority 1999, dated 2002)
